Data: paper PMC9207808 (ACS Chemical Biology, 2022)
Residues, ends and D or L forms follow the SMILES beside them.

How the values were obtained:
[1] = system: DocSTm; assay: Differential scanning fluorimetry (thermal stabilisation of Doc); type: binding, S. Typhimurium; settings: for melting temperature shift ΔTm: DSF, DocSTm 5 μM, analyte 50 μM, Tm with analyte minus Tm of free DocSTm (42.9 ± 0.9 °C), SYPRO Orange, 20 mM K2HPO4, 50 mM (NH4)2SO4, pH 8.0, triplicate; for Average Tm / Tm: DocSTm 5 µM + 50 µM binder; for Average Tm: average of 3 replicates
Experimental: Experiments were performed in a Mx3005P qPCR System (Agilent) collecting fluorescence data with a temperature ramp of 25 to 95 °C. Samples were prepared in a buffer containing 20 mM K2HPO4 and 50 mM (NH4)2SO4 at pH 8.0. The SYPRO Orange dye (Sigma-Aldrich, 5000× stock in DMSO) was used to monitor protein denaturation and was diluted to a final concentration of 3×. For binding experiments, the final concentration of Doc was 5 μM. Each condition was performed in triplicate (ESI section 4) and the melting curves were plotted using GraphPad Prism 5 (GraphPad Software, U.S.A.). The melting temperatures were obtained by fitting the sigmoidal section of the curves to a Boltzmann sigmoid function.

[2] = molecular target: DocSTm; assay: Surface plasmon resonance binding to immobilised Doc; design: species or system S. Typhimurium; settings: for koff × 10^-6 / kon × 10^6: 1:1 kinetic fit, mean ± SD of at least 3 replicates; for kon × 10^6: single-cycle kinetics (multicycle for PhdSTm1-73); for Half-life of the complex: t1/2 = ln2 / koff
Experimental: Experiments were performed in a Biacore S200 (Cytiva) with a Series S sensor chip NTA (Cytiva). The data was analyzed using the Biacore Evaluation Software (Cytiva) and curves were plotted using GraphPad Prism 5 (GraphPad Software, U.S.A.). All experiments were performed at 22 °C with a running buffer containing 10 mM HEPES, 500 mM NaCl, 50 μM EDTA, and 0.005% (v/v) TWEEN 20 at pH 8.0. The surface was conditioned following the standard manufacturer’s guidelines and protein immobilization was performed with a 30–60 s pulse (flow rate of 5 μL/min) of Doc (150 nM) in running buffer. […] Surface regeneration was performed with a 1 min pulse of 0.5 M imidazole followed by a 1 min pulse of 0.35 M of EDTA at pH 8.0.
Binding to Doc was performed using a multicycle kinetics (MCK) setup for peptides 7, 10, and 14, while the remaining samples were tested using a single-cycle kinetics (SCK) setup. The surface was fully regenerated in between each analyte in both cases. In the MCK experiments, increasing concentrations of each analyte were injected with an 80 s pulse (30 μL/min) and dissociation times varied depending on the time required to fully dissociate the complex. The double-referenced sensorgrams (raw data subtracted from a blank injection and reference surface responses) were analyzed using a kinetic and/or a steady-state 1:1 binding model. In the SCK experiments, typically six concentrations of each analyte were sequentially injected with 80 s pulses (30 μL/min), and dissociation times varied depending on the time required to dissociate at least 5% of the complex. The double-referenced sensorgrams were fitted using a kinetic 1:1 binding model.
At least three independent replicates were measured for each analyte (ESI section 5). When a steady-state fit was applied, the reported Kd and its uncertainty correspond, respectively, to the average and standard deviations of the Kd obtained in each measurement. When a kinetic fit was applied, the reported rate constants (kon and koff) and their uncertainties correspond, respectively, to the average and standard deviations of the rate constants obtained in each measurement. In this case, reported Kd were calculated using the equation below, and the standard deviation of the rate constants was propagated. [drawing 1]

[3] = SPR, kinetic fit, KD calculated from mean koff and kon, SD propagated, 22 °C, pH 8.0

CC[C@H](C)[C@H](NC(=O)[C@H](C)NC(=O)[C@H](C)NC(=O)[C@H](Cc1ccccc1)NC(=O)[C@H](CCC(=O)O)NC(=O)[C@H](CC(=O)O)NC(=O)[C@H](CC(=O)O)NC(=O)[C@H](C)NC(=O)[C@H](Cc1c[nH]c2ccccc12)NC(C)=O)C(=O)N[C@@H](CCSC)C(=O)N[C@@H](C)C(=O)N[C@H](C(=O)N[C@@H](Cc1c[nH]cn1)C(=O)NCC(=O)N[C@@H](CC(N)=O)C(=O)N[C@@H](CCC(=O)O)C(=O)N[C@@H](CC(C)C)C(=O)N[C@@H](CCCNC(=N)N)C(=O)N[C@@H](CCC(=O)O)C(=O)N[C@@H](CC(C)C)C(=O)N[C@@H](C)C(=O)N[C@@H](CC(=O)O)C(=O)N[C@@H](CCCCN)C(=O)O)C(C)C [peptide 2] (Ac-WADDEFAAIMAVHGNELRELADK-OH; C-terminus assumed)
melting temperature shift ΔTm [1]: 28.0 ± 1.0 °C
Average Tm [1]: 70.9 ± 0.4 °C
Tm ([1]; replicate 1): 71.3 °C
Tm ([1]; replicate 2): 70.8 °C
Tm ([1]; replicate 3): 70.6 °C
Kd ([2]; SPR kinetic fit, replicate 1): 0.0523 nM
Kd ([2]; SPR kinetic fit, replicate 2): 0.0478 nM
Kd ([2]; SPR kinetic fit, replicate 3): 0.0551 nM
koff × 10^-6 ([2]; SPR, 22 °C, pH 8.0): 59 ± 11 ×10^-6 s-1
kon × 10^6 ([2]; SPR, 22 °C, pH 8.0): 1.136 ± 0.140 ×10^6 M-1 s-1
Kd [2, 3]: 0.052 ± 0.012 nM
Half-life of the complex [2]: 3.3 ± 0.6 h

CC[C@H](C)[C@H](NC(=O)[C@H](C)NC(=O)[C@H](C)NC(=O)[C@H](Cc1ccccc1)NC(=O)[C@H](C)NC(=O)[C@H](CC(=O)O)NC(=O)[C@H](CC(=O)O)NC(=O)[C@H](CCSC)NC(=O)[C@H](Cc1c[nH]c2ccccc12)NC(C)=O)C(=O)N[C@@H](CCSC)C(=O)N[C@@H](C)C(=O)N[C@H](C(=O)N[C@@H](Cc1c[nH]cn1)C(=O)NCC(=O)N[C@@H](CC(N)=O)C(=O)N[C@@H](CCC(=O)O)C(=O)N[C@@H](CC(C)C)C(=O)N[C@@H](CCCNC(=N)N)C(=O)N[C@@H](CCC(=O)O)C(=O)N[C@@H](CC(C)C)C(=O)N[C@@H](C)C(=O)N[C@@H](CC(=O)O)C(=O)N[C@@H](CCCCN)C(=O)O)C(C)C [peptide 5] (Ac-WMDDAFAAIMAVHGNELRELADK-OH; C-terminus assumed)
melting temperature shift ΔTm [1]: 23.4 ± 0.9 °C
Average Tm [1]: 66.3 ± 0.1 °C
Tm ([1]; replicate 1): 66.3 °C
Tm ([1]; replicate 2): 66.3 °C
Tm ([1]; replicate 3): 66.2 °C
Kd ([2]; SPR kinetic fit, replicate 1): 0.0489 nM
Kd ([2]; SPR kinetic fit, replicate 2): 0.0513 nM
Kd ([2]; SPR kinetic fit, replicate 3): 0.0469 nM
koff × 10^-6 ([2]; SPR, 22 °C, pH 8.0): 75 ± 5 ×10^-6 s-1
kon × 10^6 ([2]; SPR, 22 °C, pH 8.0): 1.542 ± 0.147 ×10^6 M-1 s-1
Kd [2, 3]: 0.049 ± 0.006 nM
Half-life of the complex [2]: 2.6 ± 0.2 h

CC[C@H](C)[C@H](NC(=O)[C@H](C)NC(=O)[C@H](C)NC(=O)[C@H](Cc1ccccc1)NC(=O)[C@H](CCC(=O)O)NC(=O)[C@H](CC(=O)O)NC(=O)[C@H](CC(=O)O)NC(=O)[C@H](CCSC)NC(=O)[C@H](Cc1c[nH]c2ccccc12)NC(C)=O)C(=O)N[C@@H](CCSC)C(=O)N[C@@H](C)C(=O)N[C@@H](C)C(=O)N[C@@H](Cc1c[nH]cn1)C(=O)NCC(=O)N[C@@H](CC(N)=O)C(=O)N[C@@H](CCC(=O)O)C(=O)N[C@@H](CC(C)C)C(=O)N[C@@H](CCCNC(=N)N)C(=O)N[C@@H](CCC(=O)O)C(=O)N[C@@H](CC(C)C)C(=O)N[C@@H](C)C(=O)N[C@@H](CC(=O)O)C(=O)N[C@@H](CCCCN)C(=O)O [peptide 9] (Ac-WMDDEFAAIMAAHGNELRELADK-OH; C-terminus assumed)
melting temperature shift ΔTm [1]: 24.6 ± 1.2 °C
Average Tm [1]: 67.5 ± 0.7 °C
Tm ([1]; replicate 1): 68.3 °C
Tm ([1]; replicate 2): 67.4 °C
Tm ([1]; replicate 3): 66.9 °C
Kd ([2]; SPR kinetic fit, replicate 1): 0.183 nM
Kd ([2]; SPR kinetic fit, replicate 2): 0.239 nM
Kd ([2]; SPR kinetic fit, replicate 3): 0.132 nM
koff × 10^-6 ([2]; SPR, 22 °C, pH 8.0): 388 ± 57 ×10^-6 s-1
kon × 10^6 ([2]; SPR, 22 °C, pH 8.0): 2.266 ± 0.942 ×10^6 M-1 s-1
Kd [2, 3]: 0.171 ± 0.076 nM
Half-life of the complex [2]: 0.50 ± 0.07 h

CC[C@H](C)[C@H](NC(=O)[C@H](C)NC(=O)[C@H](C)NC(=O)[C@H](Cc1ccccc1)NC(=O)[C@H](CCC(=O)O)NC(=O)[C@H](CC(=O)O)NC(=O)[C@H](CC(=O)O)NC(=O)[C@H](CCSC)NC(=O)[C@H](Cc1c[nH]c2ccccc12)NC(C)=O)C(=O)N[C@@H](CCSC)C(=O)N[C@@H](C)C(=O)N[C@H](C(=O)N[C@@H](Cc1c[nH]cn1)C(=O)N[C@@H](C)C(=O)N[C@@H](CC(N)=O)C(=O)N[C@@H](CCC(=O)O)C(=O)N[C@@H](CC(C)C)C(=O)N[C@@H](CCCNC(=N)N)C(=O)N[C@@H](CCC(=O)O)C(=O)N[C@@H](CC(C)C)C(=O)N[C@@H](C)C(=O)N[C@@H](CC(=O)O)C(=O)N[C@@H](CCCCN)C(=O)O)C(C)C [peptide 11] (Ac-WMDDEFAAIMAVHANELRELADK-OH; C-terminus assumed)
Average Tm [1]: 69.0 ± 0.2 °C
Tm ([1]; replicate 1): 68.8 °C
Tm ([1]; replicate 2): 69.2 °C
Tm ([1]; replicate 3): 68.9 °C
Kd ([2]; SPR kinetic fit, replicate 1): 0.13 nM
Kd ([2]; SPR kinetic fit, replicate 2): 0.0743 nM
Kd ([2]; SPR kinetic fit, replicate 3): 0.0769 nM
koff × 10^-6 ([2]; SPR, 22 °C, pH 8.0): 197 ± 49 ×10^-6 s-1
kon × 10^6 ([2]; SPR, 22 °C, pH 8.0): 2.350 ± 1.103 ×10^6 M-1 s-1
Kd [2, 3]: 0.084 ± 0.045 nM
Half-life of the complex [2]: 1.0 ± 0.2 h

CC[C@H](C)[C@H](NC(=O)[C@H](C)NC(=O)[C@H](C)NC(=O)[C@H](Cc1ccccc1)NC(=O)[C@H](CCC(=O)O)NC(=O)[C@H](CC(=O)O)NC(=O)[C@H](CC(=O)O)NC(=O)[C@H](CCSC)NC(=O)[C@H](Cc1c[nH]c2ccccc12)NC(C)=O)C(=O)N[C@@H](CCSC)C(=O)N[C@@H](C)C(=O)N[C@H](C(=O)N[C@@H](Cc1c[nH]cn1)C(=O)NCC(=O)N[C@@H](C)C(=O)N[C@@H](CCC(=O)O)C(=O)N[C@@H](CC(C)C)C(=O)N[C@@H](CCCNC(=N)N)C(=O)N[C@@H](CCC(=O)O)C(=O)N[C@@H](CC(C)C)C(=O)N[C@@H](C)C(=O)N[C@@H](CC(=O)O)C(=O)N[C@@H](CCCCN)C(=O)O)C(C)C [peptide 12] (Ac-WMDDEFAAIMAVHGAELRELADK-OH; C-terminus assumed)
melting temperature shift ΔTm [1]: 28.2 ± 1.2 °C
Average Tm [1]: 71.1 ± 0.7 °C
Tm ([1]; replicate 1): 71.8 °C
Tm ([1]; replicate 2): 71.0 °C
Tm ([1]; replicate 3): 70.4 °C
Kd ([2]; SPR kinetic fit, replicate 1): 0.251 nM
Kd ([2]; SPR kinetic fit, replicate 2): 0.166 nM
Kd ([2]; SPR kinetic fit, replicate 3): 0.0853 nM
Kd ([2]; SPR kinetic fit, replicate 4): 0.0833 nM
koff × 10^-6 ([2]; SPR, 22 °C, pH 8.0): 203 ± 103 ×10^-6 s-1
kon × 10^6 ([2]; SPR, 22 °C, pH 8.0): 1.396 ± 0.154 ×10^6 M-1 s-1
Kd [2, 3]: 0.145 ± 0.076 nM
Half-life of the complex [2]: 1.0 ± 0.5 h

CC[C@H](C)[C@H](NC(=O)[C@H](C)NC(=O)[C@H](C)NC(=O)[C@H](Cc1ccccc1)NC(=O)[C@H](CCC(=O)O)NC(=O)[C@H](CC(=O)O)NC(=O)[C@H](CC(=O)O)NC(=O)[C@H](CCSC)NC(=O)[C@H](Cc1c[nH]c2ccccc12)NC(C)=O)C(=O)N[C@@H](CCSC)C(=O)N[C@@H](C)C(=O)N[C@H](C(=O)N[C@@H](Cc1c[nH]cn1)C(=O)NCC(=O)N[C@@H](CC(N)=O)C(=O)N[C@@H](CCC(=O)O)C(=O)N[C@@H](CC(C)C)C(=O)N[C@@H](C)C(=O)N[C@@H](CCC(=O)O)C(=O)N[C@@H](CC(C)C)C(=O)N[C@@H](C)C(=O)N[C@@H](CC(=O)O)C(=O)N[C@@H](CCCCN)C(=O)O)C(C)C [peptide 15] (Ac-WMDDEFAAIMAVHGNELAELADK-OH; C-terminus assumed)
melting temperature shift ΔTm [1]: 27.7 ± 0.9 °C
Average Tm [1]: 70.6 ± 0.1 °C
Tm ([1]; replicate 1): 70.6 °C
Tm ([1]; replicate 2): 70.7 °C
Tm ([1]; replicate 3): 70.4 °C
Kd ([2]; SPR kinetic fit, replicate 1): 0.124 nM
Kd ([2]; SPR kinetic fit, replicate 2): 0.106 nM
Kd ([2]; SPR kinetic fit, replicate 3): 0.112 nM
koff × 10^-6 ([2]; SPR, 22 °C, pH 8.0): 185 ± 52 ×10^-6 s-1
kon × 10^6 ([2]; SPR, 22 °C, pH 8.0): 1.602 ± 0.332 ×10^6 M-1 s-1
Kd [2, 3]: 0.115 ± 0.04 nM
Half-life of the complex [2]: 1.0 ± 0.3 h
